Assay results taken from patent EP2818471A1, “Nitrogen bicyclic compounds as inhibitors for Scyl1 and Grk5” (Max-Planck-Gesellschaft zur Förderung der Wissenschaften …, priority 2013, dated 2014).

What follows are molecules tested on beta-TC6 cells (assay: Insulin HTRF assay, relative activity Ar normalized to sunitinib). Conditions: Mus musculus, normalized to positive control sunitinib (5 µM = 100%), Table 10.
Assay type: cell-based
From the text: For further screening of compounds derived from compounds described above for their ability to regulate insulin release an insulin HTRF® (Homogeneous Time-Resolved Fluorescence; Cisbio International, France) was used. This assay is based on two antibodies against insulin binding to different epitopes of insulin. One of these antibodies is coupled to Europium (Ab-Eu-Cryptate) and the other one to the fluorophore XL665 (Ab-XL665). Is insulin secreted into the supernatant of cell culture both antibodies can bind to insulin and come therefore into close proximity which allows upon excitation that energy transfer between (FRET) the long-life fluorescent donor Europium (cryptate) and the acceptors XL665. FRET increases proportionally with insulin concentration.
The automated assay protocol is as follows: • On day 1 15k beta-TC6 cells per well were seeded for 24 or 48 h in 50 µl complete medium. On day 2 or respective on day 3 the medium is removed and cells are washed with 60 µl 1xPBS and 20 µl induction buffer is added using BioTek washer. Subsequently, 10 µl Sunitininb (5 µM f.c.) or the test compound in induction buffer; 0.5% f.c. DMSO (CyBi-well) is transferred to the cells. The cells are then incubated at 37°C for 2, 3, 4h.
The HTRF assay is carried out using Greiner 384-well 784075 assay plates. First 10 µl supernatant is transferred from the cell plates in HTRF plates (CyBi-well). 10 µl of 0, 1, 2, and 4 ng/ml Insulin standard controls in assay medium is used as a control. To each well 10 µl of combined 1:25 Ab-XL665 (Acc) and 1:20 Ab-Eu-Cryptate (WellMate) are added and incubated for 120 min at RT in the dark. Finally HTRF is measured on ViewLux ultra high throughput microplate imager (PerkinElmer).
The evaluation software DataFactoty derives relative activities Ar according to the following equation: Ar = (V-R(0%control))/(R(100%control) -R(0%control)) × 100 [formula] […]
The activity of the compounds was classified according to their Ar (relative activity) into the following ranges: Ar ≥ 100% + + + +; 50% ≤ Ar < 100% + + +; 20% ≤ Ar < 50% + +; 10% < Ar < 20% + [formula] Table 10. Ar (relative activity) values of inventive compounds

SMILES	Emax [%]
N#Cc1cccc(-c2cnc3cccnn23)c1 [compound 82, 3-imidazo[1,2-b]pyridazin-3-ylbenzonitrile]	20 to 50
Cc1cccc(-c2cnc3cccnn23)c1 [compound 84, 3-(m-tolyl)imidazo[1,2-b]pyridazine]	10 to 20
CCOc1ccc(-c2cnc3cccnn23)cc1 [compound 85, 3-(4-ethoxyphenyl)imidazo[1,2-b]pyridazine]	10 to 20
CSc1ccccc1-c1cnc2cccnn12 [compound 86, 3-(2-methylsulfanylphenyl)imidazo[1,2-b]pyridazine]	50 to 100
CC(=O)c1ccc(-c2cnc3cccnn23)cc1 [compound 87, 1-(4-imidazo[1,2-b]pyridazin-3-ylphenyl)ethanone]	10 to 20
O=C(NC1CC1)c1ccc(-c2cnc3cccnn23)cc1 [compound 89, N-cyclopropyl-4-imidazo[1,2-b]pyridazin-3-yl-benzamide]	10 to 20
CS(=O)(=O)Nc1ccc(-c2cnc3cccnn23)cc1 [compound 96, N-(4-imidazo[1,2-b]pyridazin-3-ylphenyl)methanesulfonamide]	10 to 20
NC(=O)c1ccc(-c2ccc3ncc(-c4ccccc4)n3n2)cc1 [compound 100, 4-(3-phenylimidazo[1,2-b]pyridazin-6-yl)benzamide]	20 to 50
c1ccc(-c2ccc3ncc(-c4ccc5c(c4)OCO5)n3n2)cc1 [compound 101, 3-(1,3-benzodioxol-5-yl)-6-phenyl-imidazo[1,2-b]pyridazine]	20 to 50
Fc1cccc(-c2ccc3ncc(-c4ccc5c(c4)OCO5)n3n2)c1 [compound 104, 3-(1,3-benzodioxol-5-yl)-6-(3-fluorophenyl)imidazo[1,2-b]pyridazine]	20 to 50
CS(=O)(=O)Nc1cccc(-c2ccc3ncc(-c4ccncc4)n3n2)c1 [compound 105, N-[3-[3-(4-pyridyl)imidazo[1,2-b]pyridazin-6-yl]phenyl]methanesulfonamide]	20 to 50
OCc1ccc(-c2ccc3ncc(-c4cccnc4)n3n2)cc1 [compound 106, [4-[3-(3-pyridyl)imidazo[1,2-b]pyridazin-6-yl]phenyl]methanol]	20 to 50
c1cncc(-c2cnc3ccc(-c4ccoc4)nn23)c1 [compound 107, 6-(3-furyl)-3-(3-pyridyl)imidazo[1,2-b]pyridazine]	20 to 50
c1cncc(-c2cnc3ccc(-c4cccs4)nn23)c1 [compound 108, 3-(3-pyridyl)-6-(2-thienyl)imidazo[1,2-b]pyridazine]	20 to 50
CC(=O)Nc1cccc(-c2cnc3ccc(-c4cccnc4)nn23)c1 [compound 109, N-[3-[6-(3-pyridyl)imidazo[1,2-b]pyridazin-3-yl]phenyl]acetamide]	10 to 20
COc1ccccc1-c1ccc2ncc(-c3ccc(F)c(Cl)c3)n2n1 [compound 113, 3-(3-chloro-4-fluoro-phenyl)-6-(2-methoxyphenyl)imidazo[1,2-b]pyridazine]	20 to 50
COc1cc(-c2ccc3ncc(-c4ccc(F)c(Cl)c4)n3n2)cc(OC)c1OC [compound 114, 3-(3-chloro-4-fluoro-phenyl)-6-(3,4,5-trimethoxyphenyl)imidazo[1,2-b]pyridazine]	10 to 20
COc1ccccc1-c1ccc2ncc(-c3cccc(OC(F)(F)F)c3)n2n1 [compound 115, 6-(2-methoxyphenyl)-3-[3-(trifluoromethoxy)phenyl]imidazo[1,2-b]pyridazine]	10 to 20
NC(=O)c1ccc(-c2ccc3ncc(-c4cccc(OC(F)(F)F)c4)n3n2)cc1 [compound 117, 4-[3-[3-(trifluoromethoxy)phenyl]imidazo[1,2-b]pyridazin-6-yl]benzamide]	20 to 50
CS(=O)(=O)c1ccc(-c2cnc3ccc(Cc4ccccc4)nn23)cc1 [compound 119, 6-benzyl-3-(4-methylsulfonylphenyl)imidazo[1,2-b]pyridazine]	10 to 20
COc1cncc(-c2cnc3ccc(Cc4ccc(F)cc4)nn23)c1 [compound 122, 6-[(4-fluorophenyl)methyl]-3-(5-methoxy-3-pyridyl)imidazo[1,2-b]pyridazine]	20 to 50

SMILES	Emax [%]
Nc1cccc(-c2ccc3ncc(-c4cccc(Cl)c4)n3n2)c1 [compound 123, 3-[3-(3-chlorophenyl)imidazo[1,2-b]pyridazin-6-yl]an iline]	20 to 50
COc1ccc(-c2ccc3ncc(-c4cccc(Cl)c4)n3n2)cc1OC [compound 124, 3-(3-chlorophenyl)-6-(3,4-dimethoxyphenyl)imidazo[1,2-b]pyridazine]	20 to 50
COc1ccc(-c2ccc3ncc(-c4cccc(Cl)c4)n3n2)c(C)c1 [compound 125, 3-(3-chlorophenyl)-6-(4-methoxy-2-methyl-phenyl)imidazo[1,2-b]pyridazine]	10 to 20
COc1cccc(-c2ccc3ncc(-c4cccc(Cl)c4)n3n2)c1 [compound 126, 3-(3-chlorophenyl)-6-(3-methoxyphenyl)imidazo[1,2-b]pyridazine]	10 to 20
Oc1cccc(-c2cnc3ccc(-c4ccc(F)cc4)nn23)c1 [compound 127, 3-[6-(4-fluorophenyl)imidazo[1,2-b]pyridazin-3-yl]phenol]	20 to 50
Oc1cccc(-c2cnc3ccc(-c4cccc5ncccc45)nn23)c1 [compound 128, 3-[6-(5-quinolyl)imidazo[1,2-b]pyridazin-3-yl]phenol]	10 to 20
CN(C)c1ccc(-c2ccc3ncc(-c4ccc(CO)cc4)n3n2)cc1 [compound 129, [4-[6-(4-dimethylaminophenyl)imidazo[1,2-b]pyridazin-3-yl]phenyl]methanol]	50 to 100
OCc1ccc(-c2cnc3ccc(-c4cncnc4)nn23)cc1 [compound 130, [4-(6-pyrimidin-5-ylimidazo[1,2-b]pyridazin-3-yl)phenyl]methanol]	10 to 20
OCc1cccc(-c2cnc3ccc(-c4cccc(Oc5ccccc5)c4)nn23)c1 [compound 133, [3-[6-(3-phenoxyphenyl)imidazo[1,2-b]pyridazin-3-yl]phenyl]methanol]	20 to 50
FC(F)(F)c1cccc(-c2cnc3ccc(-c4ccncc4)nn23)c1 [compound 134, 6-(4-pyridyl)-3-[3-(trifluoromethyl)phenyl]imidazo[1,2-b]pyridazine]	20 to 50
Oc1cccc(-c2ccc3ncc(-c4cccc(C(F)(F)F)c4)n3n2)c1 [compound 135, 3-[3-[3-(trifluoromethyl)phenyl]imidazo[1,2-b]pyridazin-6-yl]phenol]	20 to 50
FC(F)(F)c1cccc(-c2cnc3ccc(C4CC4)nn23)c1 [compound 136, 6-cyclopropyl-3-[3-(trifluoromethyl)phenyl]imidazo[1,2-b]pyridazine]	10 to 20
COc1cc(-c2cnc3ccc(-c4cccc(OC(F)(F)F)c4)nn23)ccc1O [compound 138, 2-methoxy-4-[6-[3-(trifluoromethoxy)phenyl]imidazo[1,2-b]pyridazin-3-yl]phenol]	10 to 20
NC(=O)c1ccc(-c2cnc3ccc(Cc4ccc(F)c(F)c4)nn23)cc1 [compound 145, 4-[6-[(3,4-difluorophenyl)methyl]imidazo[1,2-b]pyridazin-3-yl]benzamide]	20 to 50
CC(=O)Nc1ccc(-c2cnc3ccc(-c4ccc(N5CCOCC5)cc4)nn23)cc1 [compound 147, N-[4-[6-(4-morpholinophenyl)imidazo[1,2-b]pyridazin-3-yl]phenyl]acetamide]	≥ 100
CC(=O)Nc1ccc(-c2cnc3ccc(-c4ccc5c(c4)OCO5)nn23)cc1 [compound 148, N-[4-[6-(1,3-benzodioxol-5-yl)imidazo[1,2-b]pyridazin-3-yl]phenyl]acetamide]	≥ 100
CC(=O)Nc1ccc(-c2cnc3ccc(-c4ccc(S(C)(=O)=O)cc4)nn23)cc1 [compound 149, N-[4-[6-(4-methylsulfonylphenyl)imidazo[1,2-b]pyridazin-3-yl]phenyl]acetamide]	10 to 20
CC(=O)c1cccc(-c2cnc3ccc(-c4ccc(N)nc4)nn23)c1 [compound 153, 1-[3-[6-(6-amino-3-pyridyl)imidazo[1,2-b]pyridazin-3-yl]phenyl]ethanone]	20 to 50
CN(C)c1cccc(-c2ccc3ncc(-c4cccs4)n3n2)c1 [compound 155, N,N-dimethyl-3-[3-(2-thienyl)imidazo[1,2-b]pyridazin-6-yl]aniline]	20 to 50
Fc1ccc(-c2ccc3ncc(-c4cccs4)n3n2)cc1Cl [compound 156, 6-(3-chloro-4-fluoro-phenyl)-3-(2-thienyl)imidazo[1,2-b]pyridazine]	20 to 50
COc1cc(-c2ccc3ncc(-c4cccs4)n3n2)ccc1O [compound 157, 2-methoxy-4-[3-(2-thienyl)imidazo[1,2-b]pyridazin-6-yl]phenol]	20 to 50
